Legend:
[1] = biological target: bovine submaxillary mucin (BSM) (bovine); experiment: BLI; biotinylated BSM loaded on streptavidin pins; Abp2DRBD constructs at 2.07 µM in 1× PBS + 2% BSA + 0.05% Tween-20; 300 s association, 300 s dissociation; end time point of association compared
[2] = biological target: bovine submaxillary mucin (BSM); experiment: BLI; details: parent: est. 0.65; read off a plot
Abp1DRBD [3] = biological target: T1, Abp1DRBD (Acinetobacter baumannii, UniProt A0A219C937); experiment: glycan microarray (CFG v5.[…]), biotinylated protein; assay type: binding; details: protein 50 μg/mL; glycan immobilised through spacer; labelled protein
T1 construct: gene fimA_2

Abp2DRBD = biological target: T2, Abp2DRBD (Acinetobacter baumannii, UniProt A0A7U3Y091); experiment: glycan microarray (CFG v5.[…]), biotinylated protein; assay type: binding; details: protein 50 μg/mL; glycan immobilised through spacer; labelled protein
T2 construct: gene ACICU_01810

Abp1DRBD [4] = biological target: T1, Abp1DRBD; experiment: glycan microarray (CFG v5.[…]), biotinylated protein; assay type: binding; details: protein 50 μg/mL; glycan immobilised through spacer; labelled protein; remark: listed apart in the source

Row | Substance | Abp1DRBD / Average RFU (Abp1DRBD [3]) | Abp2DRBD / Average RFU (Abp2DRBD) | further results
1 | Abp2D receptor-binding domain (ACICU) R102A (domain or fragment) |  |  | percent reduction of binding relative to Abp2DRBD WT [1]: 70%
2 | Abp2D receptor-binding domain (ACICU) Y141A (domain or fragment) |  |  | percent reduction of binding relative to Abp2DRBD WT [1]: 90%
3 | Abp2D receptor-binding domain from ACICU (Abp2DRBD), wild type R86A |  |  | response [2]: 0.66 nm
4 | Abp2D receptor-binding domain from ACICU (Abp2DRBD), wild type R86E |  |  | response [2]: 0.02 nm
5 | Abp2D receptor-binding domain from ACICU (Abp2DRBD), wild type Y100A |  |  | response [2]: 0.46 nm
6 | Fuca1-2Galb1-4(Fuca1-3)GlcNAcb1-2Mana1-6(Fuca1-2Galb1-4(Fuca1-3)GlcNAcb1-2Mana1-3)Manb1-4GlcNAcb1-4GlcNAb-Sp20 [compound 356] | 2,867 ± 192 RFU | 58,018 ± 2,343 RFU | 
7 | Fuca1-2Galb1-4(Fuca1-3)GlcNAcb1-2Mana1-6(Fuca1-2Galb1-4(Fuca1-3)GlcNAcb1-4(Fuca1-2Galb1-4(Fuca1-3)GlcNAcb1-2)Mana1-3)Manb1-4GlcNAcb1-4GlcNAcb-Sp12 [compound 439] | 3,373 ± 55 RFU | 30,667 ± 511 RFU | 
8 | Galb1-3GlcNAcb1-3Galb1-3GlcNAcb-Sp0 [compound 285] | 3,392 ± 319 RFU | 28,674 ± 4,137 RFU | 
9 | Galb1-4(Fuca1-3)GlcNAcb1-2Mana1-6(Galb1-4(Fuca1-3)GlcNAcb1-2Mana1-3)Manb1-4GlcNAcb1-4(Fuca1-6)GlcNAcb-Sp22 [compound 412] | 2,932 ± 266 RFU | 48,357 ± 11,791 RFU | 
10 | GlcNAcb1-3Galb1-4GlcNAcb1-2Mana1-6(GlcNAcb1-3Galb1-4GlcNAcb1-2Mana1-3)Manb1-4GlcNAcb1-4GlcNAcb-Sp12 [compound 531] | 6,977 ± 1,001 RFU | 59,914 ± 1,963 RFU | 
11 | GlcNAcb1-3Galb1-4GlcNAcb1-3Galb1-4GlcNAcb1-2Mana1-6(GlcNAcb1-3Galb1-4GlcNAcb1-3Galb1-4GlcNAcb1-2Mana1-3)Manb1-4GlcNAcb1-4GlcNAcb-Sp12 [compound 535] | 4,735 ± 602 RFU | 34,056 ± 4,827 RFU | 
12 | GlcNAcb1-3Galb1-4GlcNAcb1-6(GlcNAcb1-3Galb1-4GlcNAcb1-2)Mana1-6(GlcNAcb1-3Galb1-4GlcNAcb1-2Man a1-3)Manb1-4GlcNAcb1-4GlcNAc-Sp24 [compound 545] | 3,159 ± 350 RFU | 39,436 ± 6,368 RFU | 
13 | Neu5Aca2-3Galb1-4GlcNAcb1-2Mana-Sp0 [compound 470] | 6,747 ± 133 RFU | 53,822 ± 4,116 RFU | 
14 | Neu5Aca2-3Galb1-4GlcNAcb1-3Galb1-4GlcNAcb1-3Galb1-4GlcNAcb1-2Mana1-6(Neu5Aca2-3Galb1-4GlcNAcb1-3Galb1-4GlcNAcb1-3Galb1-4GlcNAcb1-2Mana1-3)Manb1-4GlcNAcb1-4GlcNAcb-Sp12 [compound 582] |  |  | Abp1DRBD / SD (Abp1DRBD [4]): 9,786 ± 418 RFU
15 | Neu5Aca2-6Galb1-4GlcNAcb1-6GalNAca-Sp14 [compound 472] | 4,714 ± 450 RFU | 54,517 ± 1,322 RFU | 
